For the test, the target named is human PDE1B enzyme (Homo sapiens (Human), UniProt Q01064). As to the kind of experiment: IMAP TR-FRET PDE1B enzymatic assay. The class given is biochemical. The following applies: negative log of half-maximal molar inhibitory concentration, 200 nM FAM-cAMP, values given as bins; for IC50: read-out: PDE1b (pIC50) (converted). The method, boiled down: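 Full-length GST-tagged human PDE1B (250 pg/well) in IMAP BSA buffer with 10 U/ml calmodulin and 2.5 mM CaCl2; compound pre-incubated 5 min at room temperature, then 200 nM (final) FAM-cAMP for 30 min. IMAP binding reagent/Tb added, 1 h; TR-FRET 520/490 ratio read. IC50 from sigmoidal dose-response fit.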
(In general: TR-FRET usually uses a lanthanide donor and a delayed reading to cut background.)

Take `Cc1oc2ncnc(NC3(C)CC3)c2c1C(=O)N1CCc2ccc(OCF)cc2C1` [Example 767, 5-[7-(Fluoromethoxy)-1,2,3,4-tetrahydroisoquinoline-2-carbonyl]-6-methyl-N-(1-methylcyclopropyl)furo[2,3-d]pyrimidin-4-amine]: the IC50 is 10 to 100 nM.
Same read-out and setting: with `Cc1oc2ncnc(NC3(C)CC3)c2c1C(=O)N1CCc2ncc(OCF)cc2C1` [Example 768, 5-[3-(Fluoromethoxy)-5,6,7,8-tetrahydro-1,6-naphthyridine-6-carbonyl]-6-methyl-N-(1-methylcyclopropyl)furo[2,3-d]pyrimidin-4-amine] the figure was 10 to 100 nM; with `Cc1oc2ncnc(NC3(C)CC3)c2c1C(=O)N1CCc2c(ccnc2OCF)C1` [Example 769, 5-[5-(Fluoromethoxy)-1,2,3,4-tetrahydro-2,6-naphthyridine-2-carbonyl]-6-methyl-N-(1-methylcyclopropyl)furo[2,3-d]pyrimidin-4-amine], 10 to 100 nM; with `Cc1oc2ncnc(NC3(C)CC3)c2c1C(=O)N1CCC(c2ncc(OCF)cn2)CC1` [Example 770, 5-{4-[5-(Fluoromethoxy)pyrimidin-2-yl]piperidine-1-carbonyl}-6-methyl-N-(1-methylcyclopropyl)furo[2,3-d]pyrimidin-4-amine], 10 to 100 nM.
Consider `Cc1oc2ncnc(NC3(C)CC3)c2c1C(=O)N1CCC(c2ccc(OCF)cc2)C1` (centres unmarked) [Example 771, 5-{3-[4-(Fluoromethoxy)phenyl]pyrrolidine-1-carbonyl}-6-methyl-N-(1-methylcyclopropyl)furo[2,3-d]pyrimidin-4-amine], for which the IC50 is 10 to 100 nM.
With `Cc1oc2ncnc(NC3(C)CC3)c2c1C(=O)N1CCc2ccc(OCF)cc2C1C` (centres unmarked) [Example 772, 5-[7-(Fluoromethoxy)-1-methyl-1,2,3,4-tetrahydroisoquinoline-2-carbonyl]-6-methyl-N-(1-methylcyclopropyl)furo[2,3-d]pyrimidin-4-amine], the “PDE1b (pIC50)” value is on record as >8.
As to `COCc1nc2c(c(OCF)n1)CCN(C(=O)c1c(C)oc3ncnc(NC4(C)CC4)c13)C2` [Example 773, 5-[4-(Fluoromethoxy)-2-(methoxymethyl)-5H,6H,7H,8H-pyrido[3,4-d]pyrimidine-7-carbonyl]-6-methyl-N-(1-methylcyclopropyl)furo[2,3-d]pyrimidin-4-amine], the IC50 is 10 to 100 nM.
As for `Cc1oc2ncnc(NC3(C)CC3)c2c1C(=O)N1CC=C(c2ncc(F)cn2)C1` [Example 774, 5-[3-(5-Fluoropyrimidin-2-yl)-2,5-dihydro-1H-pyrrole-1-carbonyl]-6-methyl-N-(1-methylcyclopropyl)furo[2,3-d]pyrimidin-4-amine], the IC50 was 10 to 100 nM.
For `Cc1oc2ncnc(NC3(C)CC3)c2c1C(=O)N1CC=C(c2nccc(C#N)n2)CC1` [Example 775, 2-(1-{6-Methyl-4-[(1-methylcyclopropyl)amino]furo[2,3-d]pyrimidine-5-carbonyl}-1,2,3,6-tetrahydropyridin-4-yl)pyrimidine-4-carbonitrile], the “PDE1b (pIC50)” value is >8.
With `Cc1oc2ncnc(NC3(C)CC3)c2c1C(=O)N1CCC(c2ccn(C)n2)CC1` [Example 776, 6-Methyl-5-[4-(1-methyl-1H-pyrazol-3-yl)piperidine-1-carbonyl]-N-(1-methylcyclopropyl)furo[2,3-d]pyrimidin-4-amine], the “PDE1b (pIC50)” value is >8.
As for `Cc1oc2ncnc(NC3(C)CC3)c2c1C(=O)N1CCC(c2ncn(C)n2)CC1` [Example 777, 6-Methyl-5-[4-(1-methyl-1H-1,2,4-triazol-3-yl)piperidine-1-carbonyl]-N-(1-methylcyclopropyl)furo[2,3-d]pyrimidin-4-amine], the IC50 was 10 to 100 nM.
For the molecule `Cc1oc2ncnc(NC3(C)CC3)c2c1C(=O)N1CCC(c2cn(C)nn2)CC1` [Example 778, 6-Methyl-5-[4-(1-methyl-1H-1,2,3-triazol-4-yl)piperidine-1-carbonyl]-N-(1-methylcyclopropyl)furo[2,3-d]pyrimidin-4-amine], the IC50 is 10 to 100 nM.
For `Cc1oc2ncnc(NC3(C)CC3)c2c1C(=O)N1CCC(c2cc(C)n(C)n2)CC1` [Example 779, 5-[4-(1,5-Dimethyl-1H-pyrazol-3-yl)piperidine-1-carbonyl]-6-methyl-N-(1-methylcyclopropyl)furo[2,3-d]pyrimidin-4-amine], the “PDE1b (pIC50)” value is recorded as >8.
`Cc1nc(C)c(C2CCN(C(=O)c3c(C)oc4ncnc(NC5(C)CC5)c34)CC2)[nH]1` [Example 780, 5-[4-(2,4-Dimethyl-1H-imidazol-5-yl)piperidine-1-carbonyl]-6-methyl-N-(1-methylcyclopropyl)furo[2,3-d]pyrimidin-4-amine]: the IC50 is 100 to 1000 nM.
On to `Cc1oc2ncnc(NC3(C)CC3)c2c1C(=O)N1CCC(c2ccn(C(C)C)n2)CC1` [Example 781, 6-Methyl-N-(1-methylcyclopropyl)-5-{4-[1-(propan-2-yl)-1H-pyrazol-3-yl]piperidine-1-carbonyl}furo[2,3-d]pyrimidin-4-amine], for which the IC50 is 10 to 100 nM.
Same read-out and setting: with `Cc1oc2ncnc(NC3(C)CC3)c2c1C(=O)N1CCC(c2cnn(C)c2)CC1` [Example 782, 6-Methyl-5-[4-(1-methyl-1H-pyrazol-4-yl)piperidine-1-carbonyl]-N-(1-methylcyclopropyl)furo[2,3-d]pyrimidin-4-amine] the figure was 10 to 100 nM.
As to `Cc1oc2ncnc(NC3(C)CC3)c2c1C(=O)N1CC=C(c2cnc(F)s2)CC1` [Example 783, 5-[4-(2-Fluoro-1,3-thiazol-5-yl)-1,2,3,6-tetrahydropyridine-1-carbonyl]-6-methyl-N-(1-methylcyclopropyl)furo[2,3-d]pyrimidin-4-amine], the “PDE1b (pIC50)” value is given as >8.
As to `COc1cnc(C2=CCN(C(=O)c3c(C)oc4ncnc(NC5(C)CC5)c34)CC2)cn1` [Example 784, 5-[4-(5-Methoxypyrazin-2-yl)-1,2,3,6-tetrahydropyridine-1-carbonyl]-6-methyl-N-(1-methylcyclopropyl)furo[2,3-d]pyrimidin-4-amine], the “PDE1b (pIC50)” value is recorded as >8.
As for `COc1ccc(C2=CCN(C(=O)c3c(C)oc4ncnc(NC5(C)CC5)c34)CC2)nc1` [Example 785, 5-[4-(5-Methoxypyridin-2-yl)-1,2,3,6-tetrahydropyridine-1-carbonyl]-6-methyl-N-(1-methylcyclopropyl)furo[2,3-d]pyrimidin-4-amine], the “PDE1b (pIC50)” value is on record as >8.
For `Cc1oc2ncnc(NC3(C)CC3)c2c1C(=O)N1CCc2c(ncnc2N2CC[C@H](F)C2)C1` [Example 786, 5-{4-[(3S)-3-Fluoropyrrolidin-1-yl]-5H,6H,7H,8H-pyrido[3,4-d]pyrimidine-7-carbonyl}-6-methyl-N-(1-methylcyclopropyl)furo[2,3-d]pyrimidin-4-amine], the IC50 was 10 to 100 nM.
Same read-out and setting: with `Cc1oc2ncnc(NC3(C)CC3)c2c1C(=O)N1CCc2c(ncnc2N2CCOCC2)C1` [Example 787, 6-Methyl-N-(1-methylcyclopropyl)-5-[4-(morpholin-4-yl)-5H,6H,7H,8H-pyrido[3,4-d]pyrimidine-7-carbonyl]furo[2,3-d]pyrimidin-4-amine] the figure was 10 to 100 nM; with `Cc1oc2ncnc(NC3(C)CC3)c2c1C(=O)N1CCc2c(ncnc2N2CC(F)C2)C1` [Example 788, 5-[4-(3-Fluoroazetidin-1-yl)-5H,6H,7H,8H-pyrido[3,4-d]pyrimidine-7-carbonyl]-6-methyl-N-(1-methylcyclopropyl)furo[2,3-d]pyrimidin-4-amine], 10 to 100 nM.
Regarding `Cc1oc2ncnc(NC3(C)CC3)c2c1C(=O)N1CCc2c(nc(Cl)nc2NC(C)C)C1` [Example 789, 5-{2-Chloro-4-[(propan-2-yl)amino]-5H,6H,7H,8H-pyrido[3,4-d]pyrimidine-7-carbonyl}-6-methyl-N-(1-methylcyclopropyl)furo[2,3-d]pyrimidin-4-amine], the “PDE1b (pIC50)” value is listed as >8.
Consider `Cc1oc2ncnc(NC3(C)CC3)c2c1C(=O)N1CCc2c(ncnc2N(C)C2CC2)C1` [Example 790, 5-{4-[Cyclopropyl(methyl)amino]-5H,6H,7H,8H-pyrido[3,4-d]pyrimidine-7-carbonyl}-6-methyl-N-(1-methylcyclopropyl)furo[2,3-d]pyrimidin-4-amine], for which the IC50 is 10 to 100 nM.
Still for that read-out and setting: with `Cc1oc2ncnc(NC3(C)CC3)c2c1C(=O)N1CCc2c(ncnc2N(C)C)C1` [Example 791, 5-[4-(Dimethylamino)-5H,6H,7H,8H-pyrido[3,4-d]pyrimidine-7-carbonyl]-6-methyl-N-(1-methylcyclopropyl)furo[2,3-d]pyrimidin-4-amine] the figure was 10 to 100 nM; with `CNc1ncnc2c1CCN(C(=O)c1c(C)oc3ncnc(NC4(C)CC4)c13)C2` [Example 792, 6-Methyl-5-[4-(methylamino)-5H,6H,7H,8H-pyrido[3,4-d]pyrimidine-7-carbonyl]-N-(1-methylcyclopropyl)furo[2,3-d]pyrimidin-4-amine], 10 to 100 nM; with `Cc1oc2ncnc(NC3(C)CC3)c2c1C(=O)N1CCc2c(ncnc2N(C)C2CCOCC2)C1` [Example 793, 6-Methyl-5-{4-[methyl(oxan-4-yl)amino]-5H,6H,7H,8H-pyrido[3,4-d]pyrimidine-7-carbonyl}-N-(1-methylcyclopropyl)furo[2,3-d]pyrimidin-4-amine], 10 to 100 nM.
On to `Cc1oc2ncnc(NC3(C)CC3)c2c1C(=O)N1CCc2c(ncnc2NC2CCOCC2)C1` [Example 794, 6-Methyl-N-(1-methylcyclopropyl)-5-f{4-[(oxan-4-yl)amino]-5H,6H,7H,8H-pyrido[3,4-d]pyrimidine-7-carbonyl}furo[2,3-d]pyrimidin-4-amine], for which the IC50 is 10 to 100 nM.
For the molecule `COCC1(Nc2ncnc3c2CCN(C(=O)c2c(C)oc4ncnc(NC5(C)CC5)c24)C3)CC1` [Example 795, 5-(4-{[1-(Methoxymethyl)cyclopropyl]amino}-5H,6H,7H,8H-pyrido[3,4-d]pyrimidine-7-carbonyl)-6-methyl-N-(1-methylcyclopropyl)furo[2,3-d]pyrimidin-4-amine], the IC50 is 10 to 100 nM.

The record behind these values is patent US20250145633A1, “SUBSTITUTED FURANOPYRIMIDINE COMPOUNDS AS PDE1 INHIBITORS” (Dart NeuroScience, LLC, priority 2017, published 2025).
